Reference: PubChem BioAssay (NCI)
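Briefly, cells in 96-well plates were exposed to five compound concentrations for 48 h, and endpoints were estimated by linear interpolation. GI50: concentration for 50% inhibition of growth. TGI: total growth inhibition.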 *1 amine or outer side, *2 acyl side, *3 side chain or, on linkers, in order; H or OH if unused. Where a SMILES comes first, the peptide text is derived from it. Bridges are numbered along the chain shown (N, C = ends). [ ]: non-standard residue; d: D form. The star is where a group is joined. X19 = O=C([C@H](N[*:1])c1ccc(O[C@H]2O[C@@H](CO)[C@@H](O)[C@@H](O)[C@H]2O[C@@H]2O[C@H](CO)[C@H](O)[C@H](O)[C@@H]2O)cc1)[*:2]; X18 = NC(=O)[C@@H](O[*:3])[C@H](N[*:1])C(=O)[*:2]; X20 = O=C([C@H](N[*:1])c1ccc(O)c(Cl)c1)[*:2]; d(aThr) = C[C@@H](O)[C@@H](N)C(=O)O; dHpg = N[C@@H](C(=O)O)c1ccc(O)cc1; X17 = CC(C)C/C=C/C=C/C(=O)*; dOrn = NCCC[C@@H](N)C(=O)O

How the values were obtained:
Test in all cases: growth of human tumour cells (NCI), 48 h
SN12C renal = tested on: SN12C renal
OVCAR-5 ovarian = tested on: OVCAR-5 ovarian
SF-295 CNS = tested on: SF-295 CNS
CCRF-CEM leukemia = tested on: CCRF-CEM leukemia
OVCAR-8 ovarian = tested on: OVCAR-8 ovarian
A498 renal = tested on: A498 renal
HS 578T breast = tested on: HS 578T breast
T-47D breast = tested on: T-47D breast
DU-145 prostate = tested on: DU-145 prostate
SK-MEL-2 melanoma = tested on: SK-MEL-2 melanoma

| SMILES | GI50 (SN12C renal) | TGI (SN12C renal) | GI50 (OVCAR-5 ovarian) | TGI (OVCAR-5 ovarian) | GI50 (SF-295 CNS) | TGI (SF-295 CNS) | GI50 (CCRF-CEM leukemia) | TGI (CCRF-CEM leukemia) | GI50 (OVCAR-8 ovarian) | TGI (OVCAR-8 ovarian) | GI50 (A498 renal) | TGI (A498 renal) | GI50 (HS 578T breast) | TGI (HS 578T breast) | GI50 (T-47D breast) | TGI (T-47D breast) | GI50 (DU-145 prostate) | TGI (DU-145 prostate) | GI50 (SK-MEL-2 melanoma) | TGI (SK-MEL-2 melanoma) |
| --- | --- | --- | --- | --- | --- | --- | --- | --- | --- | --- | --- | --- | --- | --- | --- | --- | --- | --- | --- | --- |
| O=C(Nc1ccc(Cl)cc1)c1cc2cc(F)ccc2cc1O | 1.78 µM | > 100 µM | 3.28 µM | > 100 µM | 2.47 µM | 6.72 µM | 3.35 µM | 15.6 µM | 2.93 µM | > 100 µM | 0.553 µM | 2.74 µM | 3.03 µM | > 100 µM | 0.941 µM | 5.36 µM | 2.18 µM | > 100 µM | 0.672 µM | 2.74 µM |
| Cc1cccc2c1NC(=O)[C@@]21[C@H](C(=O)c2ccccc2)[C@]2(C(=O)Nc3ccccc32)[C@H]2CCCN21 | – | – | > 100 µM | > 100 µM | 74.6 µM | > 100 µM | 59.6 µM | > 100 µM | 25.2 µM | 92.3 µM | > 100 µM | > 100 µM | 19.5 µM | > 100 µM | 20.9 µM | > 100 µM | > 100 µM | > 100 µM | 50.5 µM | > 100 µM |
| NC(=O)c1cc(Cl)ccc1NC(=O)c1ccccc1-c1ccccc1 | 1.78 µM | > 100 µM | 4.12 µM | 79.1 µM | 0.347 µM | 15.9 µM | 0.499 µM | > 100 µM | 2.81 µM | > 100 µM | 0.155 µM | 9.78 µM | 1.07 µM | > 100 µM | 1.74 µM | 64.4 µM | 0.597 µM | 16 µM | 0.288 µM | 0.799 µM |
| O=C1CCC2=C3C4CCCCC4C(=O)C4CCCC(OC2C1)C34 (stereo unspecified) | 0.849 µM | > 24.7 µM | > 20.6 µM | > 100 µM | 2.49 µM | 15.5 µM | 1.34 µM | 8.08 µM | 0.397 µM | 23.7 µM | 31.8 µM | > 63.1 µM | 1.96 µM | 6.88 µM | 3.58 µM | > 100 µM | 0.357 µM | 2.1 µM | 1.38 µM | 4.14 µM |
| CC1(C)N=C(/C=N/O)C(C)(C)N1O | – | > 100 µM | – | > 100 µM | – | > 100 µM | – | > 100 µM | – | > 100 µM | – | > 100 µM | – | > 100 µM | – | > 100 µM | – | > 100 µM | – | > 100 µM |
| CCC(c1ccc(OC)cc1)C(CC)c1ccc(O)c(CN2CCCC2)c1 (stereo unspecified) | 5.61 µM | 20.2 µM | 12.3 µM | 27.8 µM | 2.12 µM | 4.85 µM | 3.56 µM | 13.5 µM | 3.08 µM | 10.7 µM | 2.51 µM | 11.1 µM | 5.33 µM | 23.8 µM | 2.1 µM | 6.4 µM | 5.8 µM | 19.1 µM | 1.95 µM | 4.03 µM |
| CNC(=O)c1cncc(/C=C/c2c(C)cccc2C)c1 | 20.6 µM | > 25 µM | > 25 µM | > 25 µM | > 25 µM | > 25 µM | > 25 µM | > 25 µM | > 25 µM | > 25 µM | 8.95 µM | > 25 µM | 7.19 µM | 24.2 µM | > 25 µM | > 25 µM | > 25 µM | > 25 µM | > 25 µM | > 25 µM |
| CC(C)(C)N1CC(OC(N)=O)C1 | > 100 µM | > 100 µM | > 100 µM | > 100 µM | > 100 µM | > 100 µM | > 100 µM | > 100 µM | > 100 µM | > 100 µM | > 100 µM | > 100 µM | > 100 µM | > 100 µM | > 100 µM | > 100 µM | > 100 µM | > 100 µM | > 100 µM | > 100 µM |
| CC(C)C/C=C/C=C/C(=O)N[C@@H](CC(N)=O)C(=O)N[C@@H]1C(=O)N[C@H](c2ccc(O)cc2)C(=O)N[C@H](CCCN)C(=O)N[C@H]([C@@H](C)O)C(=O)N[C@H](c2ccc(O)cc2)C(=O)N[C@H](c2ccc(O)cc2)C(=O)N[C@H]([C@H](C)O)C(=O)N[C@H](Cc2ccccc2)C(=O)N[C@H](CCCN)C(=O)N[C@H](c2ccc(O[C@H]3O[C@@H](CO)[C@@H](O)[C@@H](O)[C@H]3O[C@@H]3O[C@H](CO)[C@H](O)[C@H](O)[C@@H]3O)cc2)C(=O)N[C@H]([C@H](C)O)C(=O)N[C@H](c2ccc(O)cc2)C(=O)NCC(=O)N[C@H](CC(C)C)C(=O)N[C@H](C)C(=O)N[C@H](c2ccc(O)c(Cl)c2)C(=O)O[C@@H]1C(N)=O (X17-N[X18][dHpg][dOrn][d(aThr)][dHpg][dHpg][dT][dF][dOrn][X19][dT][dHpg]G[dL][dA][X20]; ester 2-C) | > 100 µM | > 100 µM | 27 µM | 63.5 µM | 15.8 µM | 46.1 µM | – | – | 46.8 µM | > 100 µM | 80.9 µM | > 100 µM | 27.8 µM | 82.1 µM | 34.6 µM | 98.9 µM | 37.4 µM | > 100 µM | > 100 µM | > 100 µM |
| N=C1C(c2nc3ccccc3s2)=C(O)CN1c1ccc(Cl)cc1Cl | 13.5 µM | 32.4 µM | 34.8 µM | > 100 µM | 12.7 µM | 52.4 µM | 19.2 µM | > 100 µM | 18.2 µM | 47.1 µM | 12.5 µM | 50.7 µM | 25.5 µM | 75.9 µM | 44.9 µM | > 100 µM | 18.9 µM | 63.7 µM | 27.6 µM | 96.6 µM |
| NCC1OC(n2cnc3c(=O)[nH]c(N)nc32)C(O)C1O (stereo unspecified) | – | > 100 µM | – | > 100 µM | – | > 100 µM | – | > 100 µM | – | > 100 µM | – | > 100 µM | – | > 100 µM | – | > 100 µM | – | > 100 µM | – | > 100 µM |
| ClC1(c2ccccc2)c2ccc(Br)cc2-c2cc(Br)ccc21 | – | 34.9 µM | – | 31.4 µM | – | 31.8 µM | – | > 100 µM | – | 35.8 µM | – | 32.8 µM | – | 50.3 µM | – | 58.3 µM | – | 48.1 µM | – | 32.5 µM |
| CCOC(=O)C#Cc1ccc([N+](=O)[O-])cc1 | – | 3.39 µM | – | 2.83 µM | – | 25.6 µM | – | 4.05 µM | – | 10.5 µM | – | 32 µM | – | 21.8 µM | – | 4.05 µM | – | 3.12 µM | – | 11.6 µM |
